Read-outs that look alike come from different tables or passages of the source.
How the values were obtained:
HIV-1 = settings: for HIV-1 p24 production reduced by: PBMC
Protocol: Primary cell experiments were approved by the Ohio State University Institutional Review Board, protocol #2014H0001. Peripheral blood mononuclear cells (PBMC) were isolated from healthy donor by Ficoll-Paque centrifugation, stimulated in complete RPMI 1640 medium (Gibco, Carlsbad, Calif.) containing 10% FBS, 100 μg/mL penicillin/streptomycin and supplemented with 5 μg/mL phytohemaglutinin (PHA; Gibco) for 48 h, and maintained thereafter in complete RPMI medium supplemented with 20U/mL of interleukin-2 (Gibco). PBMCs were seeded in 24-well plate (2×10^5 cells/well) and triplicate wells were treated with 10 or 50 μM C75, HS-106, or with DMSO and subsequently infected with 10 ng/mL p24 equivalents of HIV-1LucR-T2A virus, which is derived from NL4-3 (Edmonds et al., 2010). Cells were washed 24 h post infection. Supernatants were collected 4 days post infection and p24 content analyzed by quantitative ELISA (Zeptometrix).

[1] = 15 mg/kg IP
BT474 cells = assay: Acetate and glucose incorporation into lipids in HER2+ BT474 breast cancer cell line; type: cell-based; settings: Homo sapiens
Protocol: Incorporation of radiolabeled glucose or acetate in total lipids was measured according to published methods (Haystead and Hardie, 1986). HepG2 cells (80% confluent in 12 wells plates) were starved overnight in MEM Alpha, the medium was then changed with DMEM medium containing 0.1 g/L glucose 10% FBS and 5 μM insulin and 1 μCi 3-[^3H] D-glucose or 1 μCi [^3H]-acetate in addition to different concentrations of each compound. After incubation for 1 hour at 37° C., 5% CO2, the cells were washed with ice cold PBS and detached by treating with 100 μl trypsin for 10 min then 1 ml of ice cold PBS was added. The cells suspension was then sonicated for 3 times in 30 seconds intervals and kept on ice. From each well 1 ml of cell lysate was added to a 4 ml scintillation vial and 2 ml of MicroScint-E was added. The vials were mixed thoroughly then centrifuged for 30 min at 3000 rpm and the ^3H radioactivity was measured by liquid scintillation counting.
T474 cells were seeded in 6 well plates in 10% FBS 4.5 g/L glucose DMEM at a density of 400,000 cells/well. After 24 hours the media was changed with 0.1 g/L glucose DMEM containing different concentrations of HS-106. […] To each fraction, 1 ml of 25 g/L Butyl PBD dissolved in Toluene was added and radioactivity was measured by scintillation counting.

[2] = Protocol: To test if HS-106 is toxic to mice, two animal studies were initiated. In an acute toxicity study, mice received 80, 20, or 5 mg/kg HS-106 IP on day 1 and 3, and blood was collected on day 4.
In an acute toxicity study, FVB/J mice received 10, 40, or 160 pmol/kg HS-106 via intraperitoneal injection (IP) on days 1 and 3, and blood was collected on day 4. […] To test for the long term effects of HS-106, mice received biweekly IP injections of 10, 20, or 30 pmol/kg HS-106 for eight weeks. […] Next, we carried out pharmacokinetic (PK) studies to determine the uptake and bio-distribution of HS-106 in MMTV-Neu mice by LC-MS (FIG. 17).
Female FVB/J mice aged to 10-12 weeks (Jackson Labs, Maine) were intraperitonealy injected with HS-106 at the described doses twice weekly. Mice were monitored for signs of toxicity by standard Mouse Phase 1 Unit (MP1U; https://www.med.unc.edu/mousephase1) protocols and approved by UNC—CH IACUC. Prior to end of the study 150 μl of whole blood was drawn via submandibular bleed and used to determine hematology values, liver, and kidney functions. To determine the long term effects of HS-106 on mice weight, female FVB/J mice aged 12-16 weeks were treated with the indicated concentrations of HS-106 twice weekly by intraperitoneal injection for 60 days. Mice body mass was assessed weekly and were observed every day for signs of toxicity such as labored breathing and hunched posture.
Female FVB/J mice aged to 10-12 weeks (Jackson Labs, Maine) were intraperitonealy (IP) injected twice weekly with HS-106 at the described doses. Mice were monitored for signs of toxicity by standard Mouse Phase 1 Unit (M1P1U; https://www.med.unc.edu/mousephase1) protocols and approved by UNC—CH IACUC. Prior to end of the study 150 μl of whole blood was drawn via submandibular bleed and used to determine hematology values, liver, and kidney functions by HemaTrue Hematology Analyzer (HESKA, Loveland, Colo., USA) and VITROS® 350 Chemistry System (J&J, New Brunswick, N.J.) according to manufacturer protocols. To determine the long term effects of HS-106 on mice weight, female FVB/J mice aged 12-16 weeks were treated with the indicated concentrations of HS-106 twice weekly by IP injection for 60 days. Mice body mass was assessed weekly, and mice were observed daily for signs of toxicity (e.g. labored breathing and hunched posture).

MCF10A cells = assay: Proliferation assay (Hoechst DNA content), non-tumorigenic cell line; type: cell-based
Protocol: MCF10A (5,000 cells/well), MCF7 (7,500 cells/well), MDA-MB-468 (5,000 cells/well), BT474 (7,500 cells/well), and SKBR3 (5,000 cells/well) were seeded in 96 well plates with 10% FBS 4 g/L glucose DMEM media except for MCF10A which was DMEM/F12 media. After 24 hours, cells were treated with different concentration of HS-106 or C75. Every 24 hours for five days, media from one of the plates was removed and plate was frozen at −80° C. After collecting all the time points, to each well 100 μl ddH2O was add and the plates were frozen again. Then 100 μI of Hoechst 33258 solution made in TNE buffer (1 μl from Hoechst stock (1 mg/ml in 1:4 DMSO:H20) in 1 ml of TNE (which contains 10 mM Tris, 2M NaCl and 1 mM Na2EDTA) and fluorescence was measured at Ex/Em: 355/460.

Protocol for PBMC: Unfixed PBMCs were exposed to drug for 48 hours, and PBMC viability was assessed by flow cytometry using propidium iodine (PI) exclusion (BD Pharmingen) and Annexin V staining (BD Pharmingen). Viable cells are defined as cells that both exclude PI and are Annexin V negative.

Cc1sc2ncnc(NC3CCN(Cc4ccccc4)C3)c2c1C (racemic) [HS-106, N-(1-benzylpyrrolidin-3-yI)-5,6-dimethylthieno[2,3-d]pyrimidin-4-amine]
HIV-1 p24 production reduced by (HIV-1; 10 μM): 87% | HIV-1 p24 production reduced by (HIV-1; 50 μM): 96% | reduction of HIV-1 p24 production (HIV-1; primary PBMCs, 10 μM): approximately 10 fold | effect on PBMC viability (PBMC): negligible effects on cell viability | time of appearance in plasma after IP injection [1]: ≤ 5 min | IC50 (BT474 cells; BT-474, acetate as tracer, read-out: IC50, acetate incorporation into total lipids): ~1500 nM | IC50 (BT474 cells; BT-474, glucose as tracer, read-out: IC50, glucose incorporation into total lipids): 1660 nM | acute toxicity ([2]; 160 pmol/kg IP days 1 and 3): toxic | acute toxicity ([2]; 80 mg/kg IP day 1 and 3): acutely toxic | acute toxicity, blood parameters ([2]; 5 and 20 mg/kg IP day 1 and 3, blood day 4): did not affect white blood cell count, hemoglobin levels, kidney, or liver function | acute toxicity, blood parameters ([2]; 10 and 40 pmol/kg IP days 1 and 3, blood day 4): well tolerated with no adverse effects on white blood cell counts, hemoglobin levels, kidney, or liver functions | weight change ([2]; BIW IP injection, assessed weekly): dose not induce weight change | inhibition of proliferation (MCF10A cells): lower activity
